Peptide text beside a SMILES is read from it.
Assays:
PPARγ = settings: cited from earlier work
[1] = system: aP2 (FABP4) mRNA in SVF cells; experiment: qPCR of PPARγ target gene aP2; format: cell-based, murine; settings: 5 μM compound, 3 days, normalized to GAPDH
3T3-L1 cells = experiment: In vitro adipocyte differentiation, Oil Red O staining for lipid accumulation; format: cell-based; settings: differentiated 3T3-L1 preadipocytes, treated 2 or 3 days
[2] = Aggregation seen in SPR running buffer; format: physicochemical; settings: PBS + 5%DMSO

Structure (SMILES): N[C@@H](Cc1c[nH]c2ccccc12)C(=O)N[C@@H](CCC(=O)O)C(=O)O [G3335] (H-Trp-Glu-OH)
- kd (PPARγ): 0.028 s⁻¹

Structure (SMILES): CCC(NC(=O)c1ccc2c(ccn2S(=O)(=O)c2cccc3ccccc23)c1)c1ccccc1 (stereo not shown) [SR2067, 1-(Naphthalen-1-ylsulfonyl)-N-(1-phenylpropyl)-1H-indole-5-carboxamide]
- expression levels of the PPARγ target gene aP2 [1]: lower than those observed in cells treated with the full agonist rosiglitazone but higher than those in cells exposed to the antagonist SR1664
- oil red staining for lipid accumulation (3T3-L1 cells): less than that of the full agonist rosiglitazone but higher than that of the antagonist SR1664

Structure (SMILES): CN(CCOc1ccc(CC2SC(=O)NC2=O)cc1)c1ccccn1 (stereo not shown) [rosiglitazone, Rosiglitazone]
- concentration above which concentration-dependent aggregation occurs [2]: above 30 μM
